Measured values from patent US11096925B2, “Indole derivatives for biofilm disruption and inhibition” (LIFE MATTERS LTD., priority 2015, dated 2021).
Entries after “also recorded” stand apart in the source; their conditions may differ.

Experiments:
P. aeruginosa PA01 [1] = assay: Biofilm formation under static conditions, CLSM with Live/Dead staining; type: cell-based, Pseudomonas aeruginosa; conditions: for density of attached cells (biofilm) / mortality of the bacterial cells: 50 μM; for density of attached cells (biofilm): 18 h static incubation at 37° C.; for mortality of the bacterial cells: compared with DMSO control
Protocol: (§1) FIGS. 1A-B show prevention of biofilm formation. Confocal laser scanning micrographs (CLSM) of P. aeruginosa PA01 (A) and A. baumannii (B) formed in glass-bottomed 96 well plates after 18 h of static incubation at 37° C. Cultures were grown in the presence of either 50 μM DIV or NN, or an equivalent amount of DMSO for control. Biofilms were stained using the Live/Dead bacterial viability kit. Live, dead and total bio-volumes (μm^3/μm^2) were calculated based on image analysis and data from the IMARIS software. Bars indicate standard deviations for triplicate sets of experiments.
(§2) FIGS. 5A-D show biofilm attenuation of the pathogens P. stuartii (A), S. marcescens (B), A. baumannii (C) and P. aeruginosa PA01 (D). Cultures were grown in the presence of either 50 μM DIM or an equivalent amount of DMSO for control. Biofilms were stained with the LIVE/DEAD bacterial viability kit. For each species and per treatment, live, dead and total bio-volumes (μm^3/μm^2) were calculated based on image analysis and data from the IMARIS software, and % biofilm inhibition was calculated based on live bio-volumes. The results are the average values of analysis of at least three micrographs.
(§3) Bioflims of P. aeruginosa and A. baumanii that were developed on glass slides were determined using confocal scanning laser microscopy (CSLM) (FIG. 1). Accordingly, the density of the biofilms prior to and following treatment by NN and DIV was measured.
(§4) The current study investigated the influence of DIM on the biofilm formation process and on the destruction of existing biofilms of several pathogenic gram-negative bacterial strains.

A. baumannii [2] = assay: as above; type: cell-based, Acinetobacter baumannii; conditions: for density of attached cells (biofilm) / mortality of the bacterial cells: 50 μM; for density of attached cells (biofilm): 18 h static incubation at 37° C.; for mortality of the bacterial cells: compared with DMSO control
Protocol: as §1, §2, §3, §4

[3] = test system: P. aeruginosa PA01 mature biofilm; assay: Destruction of mature biofilm in flow cell, CLSM; type: cell-based, Pseudomonas aeruginosa; conditions: 72 h biofilm, then 48 h treatment, 50 μM compound, 20 μg/ml tobramycin
Protocol: FIG. 2 depicts destruction of P. aeruginosa PA01 mature biofilm; biofilm formed in a flow cell after 72 h of incubation at 37° C. and 48 h more in the presence of 50 μM NN, 20 μg/ml Tobramycin, and 50 μM NN with 20 μg/ml tobramycin. Biofilms were stained with Live/Dead bacterial viability kit. Quantification of BioVolume; Live, dead and total bio-volumes (μm^3/μm^2) calculated based on image analysis and data from the IMARIS software. The images were acquired from three different areas in each treatment.
FIG. 6. depicts destruction of mature, differentiated biofilm of P. aeruginosa PA01. Statistical analysis of CSLM images of biofilm formed in a flow system after 120 h, and with supplementation of 50 μM DIM, 20 μg/ml Tobramycin and a combined treatment of 50 μM DIM with 20 μg/ml Tobramycin. Biofilms were stained with the LIVE/DEAD bacterial viability kit. Quantification of bio-volume: live, dead and total bio-volumes (μm^3/μm^2) were calculated based on image analysis and data from the IMARIS software.
Dynamic growth conditions in flow cell systems are considered to be representative of the real conditions in humeral tissues, where the pathogen thrives in enriched settings. […] Once the efficiency of the new compounds was tested, we proceeded to assess the efficacy of adding antibiotic treatment to the novel compounds to eradicate biofilm (FIG. 2). […] On the other hand, when treated by both the antibiotic and the NN, the biofilm was eradicated and the bacterial cells died.
To investigate the combined destructive effect of the biofilm inhibitor compound and an antibiotic, P. aeruginosa PA01 was cultured for 72 h in the continuous flow system until a mature biofilm had been established Immediately after its establishment, the biofilm was challenged with DIM and/or the antibiotic tobramycin, the known activity of which is protein synthesis inhibition (FIG. 6).

P. aeruginosa PA01 [4] = assay: Virulence factor production, spectrophotometry of cell-free culture; type: cell-based, Pseudomonas aeruginosa; conditions: for virulence factors production: P. aeruginosa PA01 grown with 50 μM compound
Protocol: (§5) FIGS. 3A-B show effect on, P. aeruginosa PA01 pathogenesis. (A) Inhibition of virulence factors production in P. aeruginosa PA01, which were grown in the presence of 50 μM NN or DIV. Tetracycline is used as positive control. Results are based on OD measurements distinctive to each factor and normalized to bacterial growth at OD600 nm. Error bars represent SD of three independent repetitions. (B) C. elegans killing assay assed by SYTOX Orange stain within 24 h.
Results are based on OD measurements specific to each factor and normalized to the growth OD of 600 nm. Bars indicate standard deviations for triplicate sets of experiments.
(§6) Driven by an arsenal of virulence factors added to the biofilm mode of growth, P. aeruginosa PA01 pathogenesis depends on the type of the infection. Therefore, both compounds were tested for their abilities to suppress prominent virulence determinants (FIG. 3A). […] Measuring nematode survivorship following exposure to P. aeruginosa in the absence and presence of modulating compounds, therefore, provides a good model for assessing the effectiveness of the novel compounds on the pathogenesis of the bacteria.
The basis of P. aeruginosa pathogenicity is an arsenal of virulence determinants designed for survival and proliferation in the host that enable bacterial invasion and the subsequent establishment of infection. The success of this microorganism is largely due to its ability to form intractable biofilms and to produce myriad virulence factors controlled by a quorum-sensing (QS) system.

A. baumannii [5] = assay: Biofilm formation in dynamic flow-cell system; type: cell-based, Acinetobacter baumannii
Text: (§7) In addition, we tested the anti-biofilm properties of the well-studied anti-cancer compound 3,3′-Diindolylmethane (DIM), a metabolite found in cruciferous vegetables. Inhibition of biofilm establishment by DIM was investigated with different clinical pathogens under static conditions. Biofilm formation by A. baumannii and P. aeruginosa was further tested in a dynamic flow-cell system, in which biofilm inhibition levels of 86% and 76% were obtained, respectively. […] Further examination of the hypothesized synergistic effect obtained by combining conventional antibiotics with the DIM compound may offer a promising strategy for the eradication of biofilm complexes.

P. aeruginosa = assay: Biofilm formation in dynamic flow-cell system; type: cell-based, Pseudomonas aeruginosa
Text: as §7

S. marcescens = assay: Biofilm formation under static conditions, CLSM; type: cell-based, Serratia marcescens; conditions: 50 μM DIM
Protocol: as §2, §4

P. stuartii = assay: Biofilm formation under static conditions, CLSM; type: cell-based, Providencia stuartii; conditions: 50 μM DIM
Protocol: as §2, §4

Erwinia carotovora = assay: Biofilm formation by plant-associated bacteria, static 96 well plates, CLSM; type: cell-based; conditions: 50 μM, 18 h static
Protocol: Biofilm formed in glass-bottomed 96 well plates after 18 h of static incubation at 37° C. was investigated by confocal laser scanning micrographs (CLSM). Cultures were grown in the presence of either 50 μM DIM or NN, or an equivalent amount of DMSO for control. Biofilms were stained using the Live/Dead bacterial viability kit. Live, dead and total bio-volumes (μm^3/μm^2) were calculated based on image analysis and data from the IMARIS software.
Erwinia carotovora was cultured in glass-bottomed 96 well plates for 18 h in static conditions. The growth medium was provided with either 50 μM DIM or NN and the resulted biofilms was investigated using CSLM.

P. larvae = conditions: agar diffusion method (Brenda et al., 2010); cited from earlier work
[6] = test system: Caenorhabditis elegans infected by Pseudomonas aeruginosa; assay: C. elegans killing assay; type: in vivo; conditions: SYTOX Orange stain within 24 h
Protocol: as §5, §6

[7] = test system: A549 Human Lung Cell line infected by P. aeruginosa; assay: Cytotoxicity and apoptosis of A549 cells infected with pre-treated bacteria, calcein staining; type: cell-based; conditions: bacteria pre-treated with compound, 24 h
Protocol: FIGS. 4A-B show reduced adhesion and virulence of P. aeruginosa PA01 in human A549 lung cells model. (A) Cytotoxicity effect and apoptosis of A549 cells by P. aeruginosa PA01 pre-treated with DIV or NN during 24 h. The infection progress was monitored by calcein staining using Operetta screening system. All the experiments were performed in triplicates. (B) Adhesion of P. aeruginosa PA01 (5×10^7 CFU/ml) pre-treated with DIV or NN to A549 cells for 1 hr of incubation. Excess bacteria were removed and the released cells were plated followed CFU counts determination.
In order to test the possible effects of these compounds on higher organisms, we tested NN and DIV on A549 Human Lung Cell line infected by P. aeruginosa. Additional tests were carried out for NN and DIV to assess the effect of this compound to enhance the survival of A549 cells during infection with P. aeruginosa PA01. […] Due the fact that adherence to a humeral cell is considered a crucial step in the bacterial infection initiation process, P. aeruginosa PA01 pre-treated with DIV or NN was tested for its adherence potency to lung epithelial cells A549.

SMILES	destruction of mature biofilm [3]	biofilm formation / density of attached cells (Erwinia carotovora)	density of attached cells (biofilm) (P. aeruginosa PA01 [1])	mortality of the bacterial cells (P. aeruginosa PA01 [1])	density of attached cells (biofilm) (A. baumannii [2])	mortality of the bacterial cells (A. baumannii [2])	virulence factors production (P. aeruginosa PA01 [4])	survivorship of C. elegans following exposure to P. aeruginosa [6]	cytotoxicity effect and apoptosis of A549 cells by pre-treated P. aeruginosa PA01 [7]	other results
c1ccc2c(Cc3c[nH]c4ccccc34)c[nH]c2c1 [DIM, di(1H-indol-3-yl)methane]	destruction of existing, stable biofilm	prevents biofilm formation	–	–	–	–	–	–	–	biofilm formation compared to control (P. aeruginosa PA01 [1]; 50 μM DIM, static): substantially reduced biofilms; biofilm formation compared to control (A. baumannii [2]; 50 μM DIM, static): substantially reduced biofilms; reduction in chitinase production (P. aeruginosa PA01 [4]; 50 μM DIM): 35%; reduction in elastase (P. aeruginosa PA01 [4]; 50 μM DIM): 19%; reduction in protease (P. aeruginosa PA01 [4]; 50 μM DIM): 10%; reduction in pyocyanin (P. aeruginosa PA01 [4]; 50 μM DIM): 21%; reduction in pyoverdine (P. aeruginosa PA01 [4]; 50 μM DIM): 20%; biofilm inhibition levels (A. baumannii [5]): 86%; biofilm inhibition levels (P. aeruginosa): 76%; biofilm formation compared to control (S. marcescens): substantially reduced biofilms; biofilm formation compared to control (P. stuartii): substantially reduced biofilms; antibiotic activity against P. larvae (P. larvae): antibiotic activity
c1ccc2c(c1)CC(c1cc3ccccc3[nH]1)N2 (centres unmarked) [DIV, 2-(indolin-2-yl)-1H-indole]	–	–	reduction of density of attached cells	negligible mortality	smaller effects	negligible mortality	reduced significantly	pathogenesis of P. aeruginosa is reduced	suspended the cytotoxicity effect and apoptosis killing	–
c1ccc2c(c1)ccn2-n1ccc2ccccc21 [NN, 1,1′-Biindole]	reduced but not eradicated	prevents biofilm formation	reduction of density of attached cells; also recorded: most effective	negligible mortality	smaller effects	negligible mortality	reduced significantly	significantly increased survivorship	suspended the cytotoxicity effect and apoptosis killing	–
NC[C@H]1O[C@H](O[C@H]2[C@H](O)[C@@H](O[C@H]3O[C@H](CO)[C@@H](O)[C@H](N)[C@H]3O)[C@H](N)C[C@@H]2N)[C@H](N)C[C@@H]1O [tobramycin, Tobramycin, reference compound]	dense biofilm similar to that of the control	–	–	–	–	–	–	–	–	destruction of mature biofilm ([3]; listed as antibiotic): little loss of biofilm
